# Values quoted from earlier work in US20070071818A1 (ARDANA BIOSCIENCE LIMITED, priority 2002, published 2007).
# Where a name gives a salt, the structure may show the parent alone.
# Legend:
# [1] = tested on: female sexual arousal disorder; details: oral; menopausal women with female sexual arousal disorder
# erectile response = details: oral administration; psychogenic patient
# female sexual response = details: female sexual dysfunction
smiles,measurement,setting,value
Cc1ccc(N(CC2=NCCN2)c2cccc(O)c2)cc1 [phentolamine],effect across all measures of arousal,[1],mild positive effect
"CN1CCc2cccc3c2[C@H]1Cc1ccc(O)c(O)c1-3 [apomorphine, (6aR)-5,6,6a,7-Tetrahydro-6-methyl-4H-dibenzo[de,g]quinoline-10,11-diol hydrochloride hemihydrate]",erectile response,erectile response,induce an erection
CCCc1nn(C)c2c(=O)[nH]c(-c3cc(S(=O)(=O)N4CCN(C)CC4)ccc3OCC)nc12 [sildenafil],subjective and physiologic parameters of the female sexual response,female sexual response,significantly improve
